Laboratory results from patent US9835614B2, “Measurement of cell growth and drug susceptibility by resonant mass measurement” (Affinity Biosensors, LLC, priority 2013, dated 2017).

System: E. coli
Experiment: Resonant mass measurement of growth of E. coli cultures with antibiotics
Format: cell-based

CC1(C)S[C@@H]2[C@H](NC(=O)[C@H](N)c3ccccc3)C(=O)N2[C@H]1C(=O)O [ampicillin]
time development of mass and number of microbes in culture (FIG. 4) (E. coli in nutrient broth containing 64 μg/ml, cultures measured cyclically via selection valve): grow robustly | microbe number concentration growth curve (number of microbes per ml, FIG. 5(a)) (E. coli, 64 μg/ml, concentration calculated in each time interval): begins at about one hour | diagnostic susceptibility of the E. coli strain (at the measured concentration (64 μg/ml)): resistant
